Source: patent publication US12421254B2, “KRAS modulators and uses thereof” (Quanta Therapeutics, Inc., priority 2023, dated 2025)

Tests used:
[1] = biological target: GST-tagged KRAS-G12D (2-169) (Homo sapiens, UniProt P01116, G12D); assay: Nucleotide exchange assay (NEA), SOS-mediated, HTRF, KRAS G12D; assay type: biochemical; settings: Table 4; IC50 extracted at 30 min; 20 nM SOScat; read-out: NEA G12D IC50
Procedure, shortened: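 Compound preincubated 1 h at RT with 0.25 nM GST-KRAS-G12D (2-169) and anti-GST Tb donor, then 20 nM SOS1cat (564-1049) and 150 nM GTP-DY-647P1 added; pH 7.3 HEPES buffer with MgCl2 and DTT. HTRF monitored at RT; % inhibition versus DMSO and no-SOS blank, 4-parameter IC50 taken at 30 min.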

[2] = biological target: GST-tagged KRAS-G12V (2-169) (Homo sapiens, UniProt P01116, G12V); assay: Nucleotide exchange assay (NEA), SOS-mediated, HTRF, KRAS G12V; assay type: biochemical; settings: Table 4; IC50 extracted at 90 min; 80 nM SOS
Sequence of GST-tagged KRAS-G12V (2-169) (P01116 2-169 isoform P01116-2 G12V): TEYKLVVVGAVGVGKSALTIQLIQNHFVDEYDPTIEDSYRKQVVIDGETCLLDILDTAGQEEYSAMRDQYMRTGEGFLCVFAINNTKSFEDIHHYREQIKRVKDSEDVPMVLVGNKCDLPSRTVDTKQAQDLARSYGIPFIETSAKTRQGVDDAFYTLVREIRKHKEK
Procedure, shortened: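 GST-KRAS-G12V (2-169), 0.25 nM, pre-incubated 1 h at RT with compound, then SOS1cat (564-1049) 80 nM and GTP-DY-647P1 150 nM added in HEPES pH 7.3 buffer with MgCl2 and DTT. HTRF via anti-GST Tb cryptate read over 90 min; IC50 from 4-parameter fit at 90 min, blanked to no-SOS reactions.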

[3] = system: phospho-ERK in GP2D (KRAS-G12D) cells; assay: pERK In Cell Western (ICW) assay (Method B), GP2D; assay type: cell-based
Procedure, shortened: (§1)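 3 h cpd, 37 °C, ½-log 9-pt dilution; AGS 5,000 cells/well, GP2D/SW620 10,000 cells/well, plated overnight. PFA fix, Triton perm, anti-pERK o/n 4 °C, IRDye 800 secondary + DRAQ5. pERK/DRAQ5 as % blank; IC50 4-PL.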

[4] = system: phospho-ERK in SW620 (KRAS-G12V) cells; assay: pERK In Cell Western (ICW) assay (Method B), SW620; assay type: cell-based
Procedure, shortened: as §1

[5] = Homo sapiens, SW-620, 3 h, Table 4

Sequence of GST-tagged KRAS-G12D (2-169) (P01116 2-169 isoform P01116-2 G12D): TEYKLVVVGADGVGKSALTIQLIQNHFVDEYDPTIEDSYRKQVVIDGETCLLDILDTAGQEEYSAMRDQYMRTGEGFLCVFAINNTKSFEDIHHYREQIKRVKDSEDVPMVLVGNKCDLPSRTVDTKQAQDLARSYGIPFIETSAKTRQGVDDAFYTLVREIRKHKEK

Structure (SMILES) | IC50 [1] | IC50 [2] | IC50 ([3]; GP2d, 3 h, Table 4) | IC50 [4, 5] | IC50 ([3]; Table 4, 3 hours) | IC50 ([4]; Table 4, 3 hours)
N#Cc1c(N)sc2c1C1(CN(c3nc(OC[C@@]45CCCN4C[C@H](F)C5)nc(N4CCOCC(C#N)C4)n3)C1)SC2 (stereo partly drawn) [Compound 146, 4-[4-(2-amino-3-cyano-spiro[6H-thieno[3,4-b]thiophene-4,3′-azetidine]-1′-yl)-6-[[(2R,8S)-2-fluoro-1,2,3,5,6,7-hexahydropyrrolizin-8-yl]methoxy]-1,3,5-triazin-2-yl]-1,4-oxazepane-6-carbonitrile] | 10 to 100 nM | < 10 nM | 100 to 1000 nM | 100 to 1000 nM | – | –
CC(c1nsnc1N)N(C)c1nc(OC[C@@]23CCCN2C[C@H](F)C3)nc(N2CC3(C2)SCc2sc(N)c(C#N)c23)n1 (single isomer, unassigned) [Compound 184A, 2-amino-1′-[4-[[(1*)-1-(4-amino-1,2,5-thiadiazol-3-yl)ethyl]-methyl-amino]-6-[[(2R,8S)-2-fluoro-1,2,3,5,6,7-hexahydropyrrolizin-8-yl]methoxy]-1,3,5-triazin-2-yl]spiro[6H-thieno[2,3-c]thiophene-4,3′-azetidine]-3-carbonitrile] | < 10 nM | < 10 nM | 10 to 100 nM | < 10 nM | – | –
N#Cc1c(N)sc2c1C1(CC2)CN(c2nc(OC[C@@]34CCCN3C[C@H](F)C4)nc(N3CCCCC3C#N)n2)C1 (stereo partly drawn) [Compound 44, 2-amino-1′-[4-(2-cyano-1-piperidyl)-6-[[(2R,8S)-2-fluoro-1,2,3,5,6,7-hexahydropyrrolizin-8-yl]methoxy]-1,3,5-triazin-2-yl]spiro[5,6-dihydrocyclopenta[b]thiophene-4,3′-azetidine]-3-carbonitrile] | 10 to 100 nM | 10 to 100 nM | 100 to 1000 nM | 1000 to 20000 nM | – | –
N#Cc1c(N)sc2c1C1(CC2)CN(c2nc(OC[C@@]34CCCN3C[C@H](F)C4)nc(N3CCCCC(O)C3)n2)C1 (stereo partly drawn) [Compound 50, 2-amino-1′-[4-(3-hydroxyazepan-1-yl)-6-[[(2R,8S)-2-fluoro-1,2,3,5,6,7-hexahydropyrrolizin-8-yl]methoxy]-1,3,5-triazin-2-yl]spiro[5,6-dihydrocyclopenta[b]thiophene-4,3′-azetidine]-3-carbonitrile] | 10 to 100 nM | 10 to 100 nM | 100 to 1000 nM | 100 to 1000 nM | – | –
CC1(C#N)CCCCN(c2nc(OC[C@@]34CCCN3C[C@H](F)C4)nc(N3CC4(CCc5sc(N)c(C#N)c54)C3)n2)C1 (stereo partly drawn) [Compound 111, 2-amino-1′-[4-(3-cyano-3-methyl-azepan-1-yl)-6-[[(2R,8S)-2-fluoro-1,2,3,5,6,7-hexahydropyrrolizin-8-yl]methoxy]-1,3,5-triazin-2-yl]spiro[5,6-dihydrocyclopenta[b]thiophene-4,3′-azetidine]-3-carbonitrile] | < 10 nM | < 10 nM | 100 to 1000 nM | 100 to 1000 nM | – | –
C[C@@]1(O)C[C@H](F)CN(c2nc(OC[C@@]34CCCN3C[C@H](F)C4)nc(N3CC4(C3)SCc3sc(N)c(C#N)c34)n2)C1 [Compound 143, 2-amino-1′-[4-[[(2R,8S)-2-fluoro-1,2,3,5,6,7-hexahydropyrrolizin-8-yl]methoxy]-6-[(3R,5S)-5-fluoro-3-hydroxy-3-methyl-1-piperidyl]-1,3,5-triazin-2-yl]spiro[6H-thieno[3,4-b]thiophene-4,3′-azetidine]-3-carbonitrile] | < 10 nM | < 10 nM | < 10 nM | 10 to 100 nM | – | –
CCN(c1nc(OCC23CCC(COC2)N3)nc(N2CC3(C2)SCc2sc(N)c(C#N)c23)n1)[C@H](C)c1cccnc1N (stereo partly drawn) [Compound 204, 1-(4-((3-oxa-8-azabicyclo[3.2.1]octan-1-yl)methoxy)-6-(((R)-1-(2-aminopyridin-3-yl)ethyl)(ethyl)amino)-1,3,5-triazin-2-yl)-2′-amino-6′H-spiro[azetidine-3,4′-thieno[3,4-b]thiophene]-3′-carbonitrile] | 10 to 100 nM | < 10 nM | 100 to 1000 nM | 10 to 100 nM | – | –
C[C@H](c1cc(N)ncc1F)N(C)c1nc(OC[C@@]23CCCN2C[C@H](F)C3)nc(N2CC3(CCc4sc(N)c(C#N)c43)C2)n1 [Compound 142, 2-amino-1′-[4-[[(1R)-1-(2-amino-5-fluoro-4-pyridyl)ethyl]-methyl-amino]-6-[[(2R,8S)-2-fluoro-1,2,3,5,6,7-hexahydropyrrolizin-8-yl]methoxy]-1,3,5-triazin-2-yl]spiro[5,6-dihydrocyclopenta[b]thiophene-4,3′-azetidine]-3-carbonitrile] | < 10 nM | < 10 nM | – | – | 10 to 100 nM | 10 to 100 nM
CC(c1cc(Cl)nnc1N)N(C)c1nc(OC[C@@]23CCCN2C[C@H](F)C3)nc(N2CC3(CCc4sc(N)c(C#N)c43)C2)n1 (stereo partly drawn) [Compound 132, 2′-amino-1-(4-((1-(3-amino-6-chloropyridazin-4-yl)ethyl)(methyl)amino)-6-(((2R,7aS)-2-fluorotetrahydro-1H-pyrrolizin-7a(5H)-yl)methoxy)-1,3,5-triazin-2-yl)-5′,6′-dihydrospiro[azetidine-3,4′-cyclopenta[b]thiophene]-3′-carbonitrile] | 10 to 100 nM | < 10 nM | 1000 to 20000 nM | 100 to 1000 nM | – | –
N#Cc1c(N)sc2c1C1(CCC2)CN(c2nc(OC[C@@]34CCCN3C[C@H](F)C4)nc(N3CCCC(C#N)CC3)n2)C1 (stereo partly drawn) [Compound 39, 2-amino-1′-[4-(4-cyanoazepan-1-yl)-6-[[(2R,8S)-2-fluoro-1,2,3,5,6,7-hexahydropyrrolizin-8-yl]methoxy]-1,3,5-triazin-2-yl]spiro[6,7-dihydro-5H-benzothiophene-4,3′-azetidine]-3-carbonitrile] | 10 to 100 nM | 10 to 100 nM | 1000 to 20000 nM | 1000 to 20000 nM | – | –
CCN(c1nc(OCCN2CCCCC2)nc(N2CC3(C2)SCc2sc(N)c(C#N)c23)n1)[C@H](C)c1cccnc1N [Compound 178, 2-amino-1′-[4-[[(1R)-1-(2-amino-3-pyridyl)ethyl]-ethyl-amino]-6-[2-(1-piperidyl)ethoxy]-1,3,5-triazin-2-yl]spiro[6H-thieno[3,4-b]thiophene-4,3′-azetidine]-3-carbonitrile] | 10 to 100 nM | < 10 nM | 100 to 1000 nM | 10 to 100 nM | – | –
N#Cc1c(N)sc2c1C1(CN(c3nc(OCC4(CN5CCOCC5)CC4)nc(N4C[C@H]5CC[C@@H](C4)N5)n3)C1)SC2 [Compound 167, 1-(4-((1R,5S)-3,8-diazabicyclo[3.2.1]octan-3-yl)-6-((1-(morpholinomethyl)cyclopropyl)methoxy)-1,3,5-triazin-2-yl)-2′-amino-6′H-spiro[azetidine-3,4′-thieno[3,4-b]thiophene]-3′-carbonitrile] | < 10 nM | 10 to 100 nM | < 10 nM | 1000 to 20000 nM | – | –
N#CCC1(O)CCCN(c2nc(OCC3(CN4CCOCC4)CC3)nc(N3CC4(CCc5sc(N)c(C#N)c54)C3)n2)C1 (stereo not shown) [Compound 101, 2-amino-1′-[4-[3-(cyanomethyl)-3-hydroxy-1-piperidyl]-6-[[1-(morpholinomethyl)cyclopropyl]methoxy]-1,3,5-triazin-2-yl]spiro[5,6-dihydrocyclopenta[b]thiophene-4,3′-azetidine]-3-carbonitrile] | 10 to 100 nM | < 10 nM | 100 to 1000 nM | 1000 to 20000 nM | – | –
N#CCC1(O)CCCN(c2nc(OC[C@@]34CCCN3C[C@H](F)C4)nc(N3CC4(CCc5sc(N)c(C#N)c54)C3)n2)C1 (stereo partly drawn) [Compound 79, 2-amino-1′-[4-[3-(cyanomethyl)-3-hydroxy-1-piperidyl]-6-[[(2R,8S)-2-fluoro-1,2,3,5,6,7-hexahydropyrrolizin-8-yl]methoxy]-1,3,5-triazin-2-yl]spiro[5,6-dihydrocyclopenta[b]thiophene-4,3′-azetidine]-3-carbonitrile; 2,2,2-trifluoroacetic acid] | 10 to 100 nM | < 10 nM | 100 to 1000 nM | 1000 to 20000 nM | – | –
CCN(c1nc(OCC2(CN3C4CCC3COC4)CC2)nc(N2CC3(C2)SCc2sc(N)c(C#N)c23)n1)[C@H](C)c1cccnc1N [Compound 203, 2-amino-1′-[4-[[(1R)-1-(2-amino-3-pyridyl)ethyl]-ethyl-amino]-6-[[1-(3-oxa-8-azabicyclo[3.2.1]octan-8-ylmethyl)cyclopropyl]methoxy]-1,3,5-triazin-2-yl]spiro[6H-thieno[3,4-b]thiophene-4,3′-azetidine]-3-carbonitrile] | < 10 nM | < 10 nM | 10 to 100 nM | 10 to 100 nM | – | –
CC(CO)N(Cc1cccnc1N)c1nc(OC[C@@]23CCCN2C[C@H](F)C3)nc(N2CC3(CCc4sc(N)c(C#N)c43)C2)n1 (stereo partly drawn) [Compound 149, 2-amino-1′-[4-[(2-amino-3-pyridyl)methyl-(2-hydroxy-1-methyl-ethyl)amino]-6-[[(2R,8S)-2-fluoro-1,2,3,5,6,7-hexahydropyrrolizin-8-yl]methoxy]-1,3,5-triazin-2-yl]spiro[5,6-dihydrocyclopenta[b]thiophene-4,3′-azetidine]-3-carbonitrile] | < 10 nM | < 10 nM | 1000 to 20000 nM | 100 to 1000 nM | – | –
